Values of other authors in patent publication US20100178364A1, “Dietary supplements against latent foreign DNA” (priority 2009, published 2010).
Where two headings read alike, the source gives them in different places.

Experiments:
[1] = system: EBV immediate-early protein Rta
LT1/LT2 promoter = settings: BJAB cells, GA-treated vs untreated
[2] = system: LANA-1, v-cyclin, and v-FLIP proteins; settings: KSHV positive cells (BCBL-1, BC-3, BC-1) treated 2, 3, 6 days; effect reversible
[3] = tested levels (3 and 4 mM)

O=C(O[C@@H]1Cc2c(O)cc(O)cc2O[C@@H]1c1cc(O)c(O)c(O)c1)c1cc(O)c(O)c(O)c1 [EGCG, Epigallocatechin gallate]
percentage of cells expressing Rta ([1]; TSA-treated P3HR1 cells, 100 mM EGCG): 0.5%
percentage of cells expressing Rta ([1]; TSA-treated P3HR1 cells, EGCG): 9.8%

CC1(C)[C@@H](O[C@H]2O[C@H](C(=O)O)[C@@H](O)[C@H](O)[C@H]2O[C@@H]2O[C@H](C(=O)O)[C@@H](O)[C@H](O)[C@H]2O)CC[C@]2(C)[C@H]3C(=O)C=C4[C@@H]5C[C@@](C)(C(=O)O)CC[C@]5(C)CC[C@@]4(C)[C@]3(C)CC[C@@H]12 [GA, glycyrrhizic acid]
LT1/LT2 promoter activity (luciferase expression) (LT1/LT2 promoter): does not affect the LT1/LT2 promoter activity
LANA-1 protein expression [2]: decreased
disruption of mitochondrial membranes / DNA condensation (KSHV-positive B cells; uninfected B cells): no disruptions of their mitochondrial membranes or DNA condensation
toxicity [3]: not being toxic at the tested levels

CCCCCCCCCCCCCC(=O)O[C@@H]1[C@@H](C)[C@@]2(O)[C@@H](C=C(CO)C[C@]3(O)C(=O)C(C)=C[C@@H]23)[C@@H]2C(C)(C)[C@]12OC(C)=O [TPA, 12-O-tetradecanoyl-phorbol-13-acetate, reference compound]
disruption of mitochondrial membranes / DNA condensation (KSHV-positive B cells; TPA treatment (latent to lytic switch)): did not disrupt the mitochondrial membranes or caused DNA condensation

CC(/C=C/C(=O)NO)=C\[C@@H](C)C(=O)c1ccc(N(C)C)cc1 [TSA, reference compound]
percentage of cells expressing Rta ([1]; P3HR1 cells after TSA alone (lytic cycle activator)): 23.4%

C[C@H]1[C@H](OC(=O)CCC(=O)O)O[C@@H]2O[C@@]3(C)CC[C@H]4[C@H](C)CC[C@@H]1[C@@]24OO3 [artesunate]
viral decay T ½ (CMV; CMV load kinetics during artesunate treatment, oral 100 mg/day): 22 to 45.6 h
hematopoiesis (CMV; within 10 days): improved

Nc1nc(O)c2ncn(COC(CO)CO)c2n1 [ganciclovir]
decrease of viral DNA load (CMV; by day 7 of treatment, one patient): 1 log
